Values quoted from earlier work, collected in US20130225581A1, “NITROGEN-CONTAINING AROMATIC HETEROCYCLIC DERIVATIVE” (KYOWA HAKKO KIRIN CO., LTD, priority 2010, published 2013).

Test system: human gastric cancer tumor models

| SMILES | antitumor activities |
| --- | --- |
| COc1cc2nccc(Oc3ccc(NC(=O)NC4CC4)c(Cl)c3)c2cc1C(N)=O [4-[3-chloro-4-(cyclopropylaminocarbonyl)aminophenoxy]-7-methoxy-6-quinolinecarboxamide] | show antitumor activities |
| COc1cc2c(Oc3ccc4[nH]c(C)cc4c3F)ncnc2cc1OCCCN1CCCC1 [AZD2171] | show antitumor activities |
